Data reported in patent US20240207421A1, “NERVE TARGETING PEPTIDES AND METHODS OF USE” (ALUME BIOSCIENCES, INC., priority 2020, published 2024).

Tested on: Human Myelin PLP
Assay: Phage display library screening (Example 2, Python script analysis), binding to Human Myelin PLP
Details: combined unique sequence count, Python/R script analysis
Protocol: Phage display library screens were used to identify peptides that bind to target proteins (including specific laminin trimers) that are expressed in human nerves, as described in Table 3. These screens were also carried out to identify peptides that could bind selectively to nerves versus muscle. Such peptides could therefore be useful for systemic in-vivo labeling of nerves during fluorescence assisted surgery. Specifically, m 13 phage libraries expressing 7 or 12 random amino acid peptides, or a cyclic peptide CX7C, on the N-terminus of the minor coat protein pIII (New England Biolabs; NEB) were processed through multiple rounds of selection for binding to target proteins expressed in nerves, or to excised human nerves, nerve extracts, or muscle, as described further below.
For screening against the specified target proteins in Table 1, including LN211, LN411, LN421, and LN521, the phage library was processed by up to 4 binding and wash cycles. For selection, phage libraries were incubated for up to 24 hours at 4° C. in 96 well plates that had been coated with one of the target proteins. Plates were then washed with PBS and phage were eluted using 0.2M glycine pH 2.0. Phage supernatants where then neutralized with Tris pH 9.0 prior to plating on TGI bacteria and LB agar plates. Colonies were counted to determine titer followed by DNA preparation of pools of phage and NextGen sequencing. After rounds of selection, phage were pooled and amplified for iterative selection. Phage that were bound at each round were sequenced. NextGen sequencing of pools after 2, 3 and 4 rounds of selection was used to isolate candidate sequences that were analyzed further to identify those that specifically bound each unique target protein.
Python Script Analysis: For all NEB sequence datasets, a python script was used to translate, trim, and filter the peptide sequences. The script translated the nucleotide sequences, translating amber codons as glutamine in peptide sequences, and then trimmed the end sequences that come from the vector. Secondly, the script combined the unique counts of trimmed peptides with identical sequences. […] Another python script was used to group peptides from different assays according to protein target (Myelin Protein Zero, Myelin Proteolipid Protein, Myelin Basic Protein, and Nidogen-2) and also combine the unique sequence counts for each peptide. An R script was written to merge the peptide sequences from different data files and determine peptides specific for each protein target but absent from different protein binding datasets. Peptide sequences were ranked by unique sequence count.

Substance	Count
IRPTHNG (Myelin PLP-binding peptide)	27
KGVIPAT (Myelin PLP-binding peptide)	27
KPSASIY (Myelin PLP-binding peptide)	26
LHQTYRP (Myelin PLP-binding peptide)	27
LMQKPSI (Myelin PLP-binding peptide)	29
LNGISAL (Myelin PLP-binding peptide)	32
LPHRLNP (Myelin PLP-binding peptide)	27
LPLRLHA (Myelin PLP-binding peptide)	31
LPSHASI (Myelin PLP-binding peptide)	26
LPVKNLL (Myelin PLP-binding peptide)	26
MKIMPMD (Myelin PLP-binding peptide)	26
MPHAPVQ (Myelin PLP-binding peptide)	37
NDASTVS (Myelin PLP-binding peptide)	28
NIPSSIL (Myelin PLP-binding peptide)	33
NVFSATP (Myelin PLP-binding peptide)	31
QLPRNNL (Myelin PLP-binding peptide)	28
QPNMLKP (Myelin PLP-binding peptide)	33
QRRSVIL (Myelin PLP-binding peptide)	31
RLQPEPT (Myelin PLP-binding peptide)	33
SALISTR (Myelin PLP-binding peptide)	32
SAQSRSF (Myelin PLP-binding peptide)	26
SGLHYAL (Myelin PLP-binding peptide)	32
SGVATYT (Myelin PLP-binding peptide)	31
SLNRGGA (Myelin PLP-binding peptide)	28
SLPGYRH (Myelin PLP-binding peptide)	28
SLPSLLP (Myelin PLP-binding peptide)	26

Substance	Count
SVEKYSK (Myelin PLP-binding peptide)	33
SVLPDKL (Myelin PLP-binding peptide)	28
SVMWMTP (Myelin PLP-binding peptide)	29
SVVYQNS (Myelin PLP-binding peptide)	26
SWDVLEL (Myelin PLP-binding peptide)	31
TDVEMVP (Myelin PLP-binding peptide)	40
TFPERLR (Myelin PLP-binding peptide)	31
TGISSTP (Myelin PLP-binding peptide)	27
TKITPHR (Myelin PLP-binding peptide)	29
TLWAQKT (Myelin PLP-binding peptide)	28
TMPIKAM (Myelin PLP-binding peptide)	27
TQPRYPS (Myelin PLP-binding peptide)	28
TRASYPQ (Myelin PLP-binding peptide)	32
TTTIADM (Myelin PLP-binding peptide)	26
VFPERRV (Myelin PLP-binding peptide)	28
VGYRSAS (Myelin PLP-binding peptide)	28
VPGHISG (Myelin PLP-binding peptide)	27
VRTSMNH (Myelin PLP-binding peptide)	28
VSASWMP (Myelin PLP-binding peptide)	27
VSSQEQA (Myelin PLP-binding peptide)	34
VTGPGTP (Myelin PLP-binding peptide)	26
VTPNKAR (Myelin PLP-binding peptide)	26
WHYTPSM (Myelin PLP-binding peptide)	26
WNTADRL (Myelin PLP-binding peptide)	34
WSPHGYK (Myelin PLP-binding peptide)	27
